Measurements: PubChem BioAssay (NCI)
In brackets after ≈: the same amount, converted by molar mass.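 1) Cells in 96-well plates. 2) Compound, 48 h, 5 concentrations. 3) Linear interpolation between surrounding doses. 4) Unreached endpoint = highest concentration. Abbreviation: GI50, concentration required for 50% inhibition of growth. The concentration for full growth arrest is given as TGI.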

Tests used:
Assay in all cases: NCI-60 cell line screen, 48 h
[1] = tested on: SF-295 CNS
[2] = tested on: IGROV1 ovarian
[3] = tested on: SNB-75 CNS
[4] = tested on: HT29 colon
[5] = tested on: MOLT-4 leukemia
[6] = tested on: OVCAR-4 ovarian
[7] = tested on: OVCAR-5 ovarian
[8] = tested on: SF-268 CNS
[9] = tested on: CCRF-CEM leukemia
[10] = tested on: SK-MEL-5 melanoma
[11] = tested on: HOP-92 NSCLC
[12] = tested on: A549 NSCLC
[13] = tested on: U251 CNS

Compound	TGI [1]	TGI [2]	TGI [3]	TGI [4]	TGI [5]	TGI [6]	TGI [7]	TGI [8]	TGI [9]	TGI [10]	TGI [11]	TGI [12]	TGI [13]	GI50 [1]	GI50 [7]	GI50 [8]	GI50 [10]	GI50 [11]	GI50 [12]
Cc1cc(O)c2c(c1)C(=O)c1c(c(O)cc(O)c1-c1c(O)cc(O)c3c1C(=O)c1cc(C)cc(O)c1C3=O)C2=O	38.3 µM	52.6 µM	66.1 µM	45 µM	50.8 µM	26.9 µM	85 µM	75.4 µM	48.3 µM	30.6 µM	34.4 µM	65.9 µM	46 µM						
CC1(C)OCC(CO)(CO)CO1	> 100 µM		> 100 µM	> 100 µM	> 100 µM	> 100 µM		> 100 µM	> 100 µM	> 100 µM	> 100 µM	> 100 µM	> 100 µM						
Cc1nc2nc(C)n(CCN3CCOCC3)c(=O)c2c(-c2cccc([N+](=O)[O-])c2)c1C(=O)CCCCCCCCCCN1CCC(c2ccccc2)(c2ccccc2)CC1	2.65 µg/mL						4.03 µg/mL	4.26 µg/mL		4.3 µg/mL	1.25 µg/mL	5.24 µg/mL		0.78 µg/mL (≈ 0.96 µM)	2.07 µg/mL (≈ 2.55 µM)	2.26 µg/mL (≈ 2.78 µM)	2.3 µg/mL (≈ 2.83 µM)	0.0976 µg/mL (≈ 0.12 µM)	2.38 µg/mL (≈ 2.93 µM)
ICC1CCCO1 (stereo not drawn)	> 100 µM	> 100 µM	> 100 µM	> 100 µM	> 100 µM	> 100 µM	> 100 µM	> 100 µM	> 100 µM	> 100 µM	> 100 µM	> 100 µM	> 100 µM						
CCOP(=O)(C/C=C/Cn1ncc(=O)[nH]c1=O)OCC		> 100 µM	> 100 µM	> 100 µM	> 100 µM	> 100 µM	> 100 µM	> 100 µM	> 100 µM	> 100 µM	> 100 µM	> 100 µM	> 100 µM						
O=C=C=P(c1ccccc1)(c1ccccc1)c1ccccc1	> 100 µM	> 100 µM	83.6 µM		> 100 µM	> 100 µM	92.8 µM	> 100 µM	> 100 µM	46.2 µM	85.1 µM	> 100 µM	> 100 µM						
CC(C)c1oc(=O)cc2c1C(O)C1OC(=O)C3(C)C(O)C4OC4C2(C)C13 (stereo not drawn)	12.8 µM	20.6 µM	7.92 µM	11.1 µM	2.13 µM	12.4 µM	27.2 µM	25 µM	3.07 µM	1.77 µM	2.38 µM	16.5 µM	25 µM						
C=C1CC(OC)(C(OC)C(=O)N[C@H]2OCO[C@H]3C2O[C@H](C[C@@H](COC)OC)C(C)(C)C3OC)O[C@H](C)[C@@H]1C (stereo partly drawn)	3.28 µM	12.3 µM	9.99 µM	5.49 µM	1.88 µM	4.25 µM	4 µM		1.43 µM	1.3 µM	4.76 µM	5.24 µM	4.13 µM						
